ChEMBL document CHEMBL1201862, “PubChem BioAssay data set” (2004)
Activity calls are given as the source filed them.

Key:
[1] = cells
[2] = inhibitors of TRPM1-promoter reporter in SK-MEL-5 – cell-based, luciferase, dry powder, set 8, MITF inhibitor project, dose response (AID 624430); assay type: functional
[3] = MITF Orthogonal Assay: SK-MEL-5 CTG Assay Measured in Cell-Based System Using Plate Reader - 2084-02_Inhibitor_Dose_DryPowder_Activity_Set7.; assay type: functional
[4] = MITF: Counter assay: A375 proliferation Measured in Cell-Based System Using Plate Reader - 2084-03_Inhibitor_Dose_DryPowder_Activity_Set8.; assay type: functional; settings: A-375
[5] = biological target: C-X-C chemokine receptor type 4 (Homo sapiens, UniProt P61073); experiment: SAR analysis of small molecule antagonists of the CXCR6 receptor using a CXCR4 receptor luminescent beta-arrestin counterscreen.; assay type: functional
C-X-C chemokine receptor type 4, sequence (P61073 whole entry): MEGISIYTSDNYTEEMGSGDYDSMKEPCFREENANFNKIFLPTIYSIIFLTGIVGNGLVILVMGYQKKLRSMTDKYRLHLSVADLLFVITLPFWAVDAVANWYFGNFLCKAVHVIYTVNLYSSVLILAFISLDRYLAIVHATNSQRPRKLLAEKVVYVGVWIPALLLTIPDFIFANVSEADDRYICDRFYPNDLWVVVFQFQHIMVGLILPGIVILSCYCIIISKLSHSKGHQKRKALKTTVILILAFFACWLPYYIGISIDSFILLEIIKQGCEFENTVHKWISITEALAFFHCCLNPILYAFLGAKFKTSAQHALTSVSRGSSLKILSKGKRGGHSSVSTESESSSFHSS

[6] = biological target: C-C chemokine receptor type 6 (Homo sapiens, UniProt P51684); experiment: SAR analysis of small molecule antagonists of the CXCR6 receptor using a CCR6 receptor luminescent beta-arrestin counterscreen.; assay type: functional
C-C chemokine receptor type 6, sequence (P51684 whole entry): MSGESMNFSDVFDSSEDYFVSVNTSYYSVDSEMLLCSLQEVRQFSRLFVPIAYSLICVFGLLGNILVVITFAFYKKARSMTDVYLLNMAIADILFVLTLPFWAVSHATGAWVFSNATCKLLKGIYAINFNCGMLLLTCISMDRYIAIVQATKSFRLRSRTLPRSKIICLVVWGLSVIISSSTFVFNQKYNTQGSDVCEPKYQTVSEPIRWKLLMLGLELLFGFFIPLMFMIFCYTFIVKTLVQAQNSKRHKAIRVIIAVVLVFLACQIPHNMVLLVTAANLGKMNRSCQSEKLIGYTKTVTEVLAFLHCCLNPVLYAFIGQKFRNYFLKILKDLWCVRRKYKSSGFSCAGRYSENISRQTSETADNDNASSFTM

[7] = inhibitors acting on PAX2 in cells – cell-based, plate reader, dry powder samples, selectivity assay for PAX8 inhibitor project, dose response (AID 743048); assay type: functional;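 also: HEK293 cells carrying a WT1 promoter luciferase reporter driven by expressed Pax2; potency is for inhibition of Pax2 driven reporter signal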
[8] = PAX5 cellular inhibition readout – cell-based, plate reader, dry powder samples, selectivity assay for PAX8 inhibitor project, dose response (AID 743047); assay type: functional;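 also: HEK293 cells carrying a Pax5 driven CD19 promoter luciferase reporter; potency of inhibitors that lower reporter luminescence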
[9] = PAX8-dependent cell viability loss – plate reader, dry powder, dose response (AID 743049); assay type: functional, cell-based
[10] = biological target: Paired box protein Pax-8 (Homo sapiens, UniProt Q06710); experiment: PAX8 transcriptional activity inhibition in RMG-I – RMG-I cells, luciferase, cherry-pick, dose response (AID 687027); assay type: functional, cell-based;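 also: luciferase reporter driven by Pax8 target thyroperoxidase promoter measured by SteadyGlo luminescence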
Paired box protein Pax-8, sequence (Q06710 whole entry): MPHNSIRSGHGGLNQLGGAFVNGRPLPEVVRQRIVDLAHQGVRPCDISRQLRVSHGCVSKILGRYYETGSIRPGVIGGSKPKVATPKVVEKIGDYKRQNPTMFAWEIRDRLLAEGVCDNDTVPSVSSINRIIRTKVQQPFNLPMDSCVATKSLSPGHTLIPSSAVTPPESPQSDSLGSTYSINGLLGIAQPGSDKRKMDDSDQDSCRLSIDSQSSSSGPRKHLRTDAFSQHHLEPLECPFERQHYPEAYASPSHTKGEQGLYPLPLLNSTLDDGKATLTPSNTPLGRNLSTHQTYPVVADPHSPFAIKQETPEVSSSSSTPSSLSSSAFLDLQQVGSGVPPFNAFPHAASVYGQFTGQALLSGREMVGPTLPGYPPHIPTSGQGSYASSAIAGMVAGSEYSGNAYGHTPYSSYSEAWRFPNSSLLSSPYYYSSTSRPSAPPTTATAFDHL

[11] = COV434 cell viability loss – plate reader, dry powder, SA7, cytotoxicity control for PAX8 inhibitor project, dose response (AID 743145); assay type: functional, cell-based
[12] = biological target: NAD-dependent protein deacylase sirtuin-5, mitochondrial (Homo sapiens, UniProt Q9NXA8); experiment: sirtuin-5 deacylation blockers, concentration series – biochemical, fluorescence imaging, cherry-pick, set 5, dose response (AID 720591);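 also: desuccinylation of succinyl peptide AMC substrate read as fluorescence after trypsin release; potency of inhibitors that lower fluorescence and may act on trypsin instead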
NAD-dependent protein deacylase sirtuin-5, mitochondrial, sequence (Q9NXA8 whole entry): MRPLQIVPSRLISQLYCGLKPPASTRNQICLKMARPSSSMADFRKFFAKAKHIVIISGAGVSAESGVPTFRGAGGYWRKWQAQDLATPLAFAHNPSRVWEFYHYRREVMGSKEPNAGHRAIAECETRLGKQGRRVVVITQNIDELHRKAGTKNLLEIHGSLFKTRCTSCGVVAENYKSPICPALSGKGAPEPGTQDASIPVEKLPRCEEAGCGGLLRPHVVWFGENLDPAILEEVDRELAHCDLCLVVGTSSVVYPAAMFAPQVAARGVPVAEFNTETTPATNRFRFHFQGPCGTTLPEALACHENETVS

[13] = viability loss in HEK293 kidney cells – cell-based, cherry-picks, set 5, cytotoxicity control, dose response (AID 1053117); assay type: functional
[14] = viability loss in A549 lung cancer cells – cell-based, cherry-picks, […], cytotoxicity control, dose response (AID 1053119); assay type: functional
[15] = toxicity to human hepatoma HepG2 cells – cell-based, cherry-picked samples, cytotoxicity control, dose response (AID 1159577); assay type: functional
[16] = blockers of FN fibrillogenesis by fibroblasts – AH1F cells, Alexa488-FN fluorescence, cherry-picks, dose response (AID 1035475); assay type: functional, cell-based
[17] = P. falciparum Dd2 growth inhibitors, dose response, SYBR Green, cherry-picked samples (AID 1159567); assay type: functional, cell-based
[18] = viability loss in HepG2 hepatoma cells – cell-based, cherry-picks, set 5, cytotoxicity control, dose response (AID 1053118); assay type: functional
[19] = miR-122 quantity in Huh7 after inhibitor exposure – cell-based, RT-qPCR, dry powder, orthogonal assay for miR-122 inhibitor project, dose response (AID 687041); assay type: functional
[20] = test system: INS1; experiment: INS-1E survival protection against cytokine death – cell-based, luminescence, retest, dose response (AID 449756); assay type: functional; settings: Rattus norvegicus;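 also: cell death triggered by IL-1 beta plus TNF-alpha plus IFN-gamma mixture; protective hits raise ATP signal compared with cytokine alone wells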
[21] = biological target: Disintegrin and metalloproteinase domain-containing protein 17 (Homo sapiens, UniProt P78536); experiment: inhibition of ADAM17 substrate cleavage – biochemical, quenched FRET substrate, counter-screen for ADAM10 exosite inhibitor project, dose response (AID 743253)
Disintegrin and metalloproteinase domain-containing protein 17, sequence (P78536 whole entry, the tested form may be a part): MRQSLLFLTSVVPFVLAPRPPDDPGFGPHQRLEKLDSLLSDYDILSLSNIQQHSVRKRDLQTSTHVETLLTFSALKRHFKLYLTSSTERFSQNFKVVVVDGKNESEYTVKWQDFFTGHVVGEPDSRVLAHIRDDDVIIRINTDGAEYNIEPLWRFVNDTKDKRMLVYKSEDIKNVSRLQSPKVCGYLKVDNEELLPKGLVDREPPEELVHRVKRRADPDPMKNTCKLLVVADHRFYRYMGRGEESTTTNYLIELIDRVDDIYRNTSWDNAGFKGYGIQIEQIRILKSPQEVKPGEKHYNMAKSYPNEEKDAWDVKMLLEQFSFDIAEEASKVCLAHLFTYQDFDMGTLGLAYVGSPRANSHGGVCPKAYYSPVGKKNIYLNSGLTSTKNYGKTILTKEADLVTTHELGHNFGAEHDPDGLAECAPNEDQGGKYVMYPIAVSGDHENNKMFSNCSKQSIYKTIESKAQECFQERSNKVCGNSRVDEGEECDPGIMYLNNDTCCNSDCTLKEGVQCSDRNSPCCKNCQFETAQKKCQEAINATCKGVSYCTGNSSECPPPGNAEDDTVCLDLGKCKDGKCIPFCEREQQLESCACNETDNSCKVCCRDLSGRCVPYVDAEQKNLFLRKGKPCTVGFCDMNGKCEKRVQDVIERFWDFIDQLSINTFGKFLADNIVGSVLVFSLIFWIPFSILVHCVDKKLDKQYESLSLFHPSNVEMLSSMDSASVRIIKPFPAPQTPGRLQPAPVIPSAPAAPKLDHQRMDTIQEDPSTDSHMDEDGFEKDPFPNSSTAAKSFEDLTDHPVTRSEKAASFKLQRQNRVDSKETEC

[22] = biological target: T1, Streptokinase A (Streptococcus pyogenes serotype M1, UniProt P10520); experiment: viability-normalized secreted streptokinase activity reduction – plasminogen activation absorbance, OD405, dose response (AID 1914); assay type: functional, Streptococcus pyogenes M1 GAS;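 also: secreted streptokinase activity via plasminogen activation per viability signal from cell pellet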
T1 sequence (P10520 whole entry): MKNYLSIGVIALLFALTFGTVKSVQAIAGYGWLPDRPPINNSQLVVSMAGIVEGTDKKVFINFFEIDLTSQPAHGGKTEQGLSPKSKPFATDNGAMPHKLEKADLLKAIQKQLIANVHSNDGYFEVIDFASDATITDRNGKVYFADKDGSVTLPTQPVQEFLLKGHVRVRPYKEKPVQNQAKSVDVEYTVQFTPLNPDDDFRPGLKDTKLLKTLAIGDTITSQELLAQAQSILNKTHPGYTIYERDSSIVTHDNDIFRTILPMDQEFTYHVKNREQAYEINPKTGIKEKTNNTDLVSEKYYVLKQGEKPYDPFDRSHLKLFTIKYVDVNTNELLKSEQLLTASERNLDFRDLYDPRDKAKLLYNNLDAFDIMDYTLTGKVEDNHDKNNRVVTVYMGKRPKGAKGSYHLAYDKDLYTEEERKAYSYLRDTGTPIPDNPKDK

[23] = test system: Streptococcus sp. 'group A'; experiment: Streptococcus pyogenes SK(-)GAS viability under kanamycin – luminescence, BacTiterGlo, confirmation, counter-screen for streptokinase expression inhibitor project, dose response (AID 1900); assay type: functional, organism-based
[24] = test system: Streptococcus; experiment: GAS UMAA2166 growth inhibition – luminescence, BacTiterGlo, counter-screen for streptokinase expression inhibitor project, dose response (AID 1915); assay type: functional, organism-based;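 also: potency for reduction of bacterial viability or growth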
[25] = biological target: T2, Methionyl-tRNA synthetase, putative (Trypanosoma brucei brucei, UniProt Q38C91); assay type: functional, Trypanosoma brucei brucei strain 927/4 GUTat10.1
T2 sequence (Q38C91 whole entry): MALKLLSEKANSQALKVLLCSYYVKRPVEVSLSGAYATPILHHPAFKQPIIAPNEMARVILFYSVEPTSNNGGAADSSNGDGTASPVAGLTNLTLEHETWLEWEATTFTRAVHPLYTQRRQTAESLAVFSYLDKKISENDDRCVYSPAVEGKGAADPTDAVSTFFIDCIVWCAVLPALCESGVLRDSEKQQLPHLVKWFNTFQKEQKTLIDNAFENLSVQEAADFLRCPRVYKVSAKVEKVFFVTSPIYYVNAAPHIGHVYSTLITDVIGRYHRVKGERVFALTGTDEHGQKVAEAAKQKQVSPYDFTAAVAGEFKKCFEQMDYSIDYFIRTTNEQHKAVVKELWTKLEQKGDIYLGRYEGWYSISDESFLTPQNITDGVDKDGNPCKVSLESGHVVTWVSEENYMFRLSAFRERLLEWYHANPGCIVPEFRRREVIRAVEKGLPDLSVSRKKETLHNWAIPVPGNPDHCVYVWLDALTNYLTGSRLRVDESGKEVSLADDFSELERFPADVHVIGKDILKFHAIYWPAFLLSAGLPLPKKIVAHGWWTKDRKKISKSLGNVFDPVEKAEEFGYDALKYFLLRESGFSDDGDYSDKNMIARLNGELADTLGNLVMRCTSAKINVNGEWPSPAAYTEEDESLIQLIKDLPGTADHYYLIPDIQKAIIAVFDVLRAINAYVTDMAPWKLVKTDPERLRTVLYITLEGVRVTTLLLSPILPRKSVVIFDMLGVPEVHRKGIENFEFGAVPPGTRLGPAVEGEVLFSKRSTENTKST

[26] = biological target: T2, Methionyl-tRNA synthetase, putative; assay type: functional, Trypanosoma brucei brucei strain 927/4 GUTat10.1; remark: listed apart in the source
[27] = Counterscreen for inhibitors of Trypanosoma brucei methionyl tRNA synthetase (MetRS): Luminescence-based cell-based high throughput dose response assay to identify compounds that are cytotoxic to Jurkat human T lymphocyte cells.; assay type: functional
[28] = Late stage counterscreen for inhibitors of Trypanosoma brucei methionyl tRNA synthetase (MetRS): Luminescence-based cell-based high throughput dose response assay to identify compounds that are cytotoxic to Jurkat human T lymphocyte cells.; assay type: functional
[29] = non-specific 3'UTR reporter inhibition in Clone20-Shn3RL – cell-based, Renilla luciferase, cherry-picked, counter-screen for Shn3 inhibitor project, dose response (AID 624133); assay type: functional
[30] = Shn3 3'UTR reporter signal decrease – cell-based, Clone20 osteoblasts, firefly luciferase, cherry-pick, set 2, Schnurri-3 inhibitor project, dose response (AID 720490); assay type: functional;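 also: actives lower the luminescence signal as inhibitors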
[31] = EF1alpha-driven Renilla reporter with control 3'UTR suppression – Clone20-Shn3RL cells, dual-Glo, cherry-pick, set 2, counter-screen for Shn3 3'UTR targeting project, dose response (AID 720724); assay type: functional, cell-based; settings: Dual-Go Shn3RL
[32] = reduction of Shn3 3'UTR-driven luciferase in osteoblasts – cell-based, Clone20 osteoblasts, firefly luciferase, cherry-picked, dose response (AID 624132); assay type: functional;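 also: firefly luciferase luminescence from reporter carrying the Shn3 3'UTR in osteoblasts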
[33] = biological target: Potassium channel subfamily K member 3 (Homo sapiens, UniProt O14649); experiment: inhibition of human KCNK3 channel flux – CHO cells, FluxOR thallium flux, SAR follow-up (AID 652212); assay type: functional
Potassium channel subfamily K member 3, sequence (O14649 whole entry, the tested form may be a part): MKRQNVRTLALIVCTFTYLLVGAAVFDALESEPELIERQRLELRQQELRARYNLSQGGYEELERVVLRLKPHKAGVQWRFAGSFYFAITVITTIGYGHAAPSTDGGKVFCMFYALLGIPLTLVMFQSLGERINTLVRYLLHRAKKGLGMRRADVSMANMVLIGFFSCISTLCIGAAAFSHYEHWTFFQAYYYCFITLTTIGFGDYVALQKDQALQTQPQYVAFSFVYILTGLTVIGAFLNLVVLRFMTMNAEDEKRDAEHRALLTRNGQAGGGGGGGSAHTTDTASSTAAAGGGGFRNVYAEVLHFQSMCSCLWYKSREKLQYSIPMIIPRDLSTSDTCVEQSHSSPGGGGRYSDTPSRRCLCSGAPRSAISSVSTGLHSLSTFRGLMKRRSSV

[34] = biological target: E3 ubiquitin-protein ligase UHRF1 (Homo sapiens, UniProt Q96T88); experiment: Counterscreen for inhibitors of 5-meCpG-binding domain protein 2 (MBD2): TRFRET-based biochemical high throughput dose response assay to identify inhibitors of binding of ubiquitin-like with PHD and ring finger domains 1 (UHRF1) to methylated oligonucleotide.
E3 ubiquitin-protein ligase UHRF1, sequence (Q96T88 whole entry, the tested form may be a part): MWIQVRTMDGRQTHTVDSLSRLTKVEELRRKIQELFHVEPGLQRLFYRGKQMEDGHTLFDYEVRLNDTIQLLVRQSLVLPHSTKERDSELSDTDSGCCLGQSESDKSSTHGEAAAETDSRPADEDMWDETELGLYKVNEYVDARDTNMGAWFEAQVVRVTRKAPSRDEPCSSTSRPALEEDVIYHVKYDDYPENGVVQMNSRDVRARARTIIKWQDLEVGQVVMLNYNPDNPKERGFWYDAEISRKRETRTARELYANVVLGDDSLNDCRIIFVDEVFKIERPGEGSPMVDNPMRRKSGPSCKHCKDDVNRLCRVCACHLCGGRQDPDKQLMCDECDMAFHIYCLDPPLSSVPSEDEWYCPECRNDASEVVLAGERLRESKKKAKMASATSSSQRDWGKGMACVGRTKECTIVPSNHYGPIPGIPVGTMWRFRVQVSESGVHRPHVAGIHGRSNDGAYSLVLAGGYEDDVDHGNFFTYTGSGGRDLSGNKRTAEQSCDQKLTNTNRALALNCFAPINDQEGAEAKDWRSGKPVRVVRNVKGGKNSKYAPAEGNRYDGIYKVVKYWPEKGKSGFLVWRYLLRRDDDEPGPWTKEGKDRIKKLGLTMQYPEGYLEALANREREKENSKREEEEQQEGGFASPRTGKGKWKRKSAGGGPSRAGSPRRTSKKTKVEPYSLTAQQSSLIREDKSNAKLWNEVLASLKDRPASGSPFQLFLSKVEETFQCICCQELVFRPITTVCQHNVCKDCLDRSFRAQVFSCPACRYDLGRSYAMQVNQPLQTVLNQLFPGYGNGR

[35] = HEK293 Cytotoxicity Assay Measured in Cell-Based System Using Plate Reader - 7071-01_Inhibitor_Dose_CherryPick_Activity_Set2.; assay type: functional
[36] = test system: HEK293; experiment: viability loss in HEK293T cells – cell-based, ATP luminescence, cherry-pick samples, cytotoxicity control, dose response (AID 687005); assay type: functional; settings: Homo sapiens;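 also: cells exposed to compound for 48 hours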
[37] = biological target: T3, Oxysterols receptor LXR-beta (Homo sapiens, UniProt P55055); assay type: functional, cell-based;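 also: Cell-based luminescence dose-response assay of agonist activity at LXR, run as a confirmatory counterscreen to a daf-12 agonist screen; HEK293 cells with Gal4-LXR fusion and GAL4-driven luciferase reporter; agonist potency from rising luciferase signal of a Gal4-LXR reporter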
T3 sequence (P55055 whole entry): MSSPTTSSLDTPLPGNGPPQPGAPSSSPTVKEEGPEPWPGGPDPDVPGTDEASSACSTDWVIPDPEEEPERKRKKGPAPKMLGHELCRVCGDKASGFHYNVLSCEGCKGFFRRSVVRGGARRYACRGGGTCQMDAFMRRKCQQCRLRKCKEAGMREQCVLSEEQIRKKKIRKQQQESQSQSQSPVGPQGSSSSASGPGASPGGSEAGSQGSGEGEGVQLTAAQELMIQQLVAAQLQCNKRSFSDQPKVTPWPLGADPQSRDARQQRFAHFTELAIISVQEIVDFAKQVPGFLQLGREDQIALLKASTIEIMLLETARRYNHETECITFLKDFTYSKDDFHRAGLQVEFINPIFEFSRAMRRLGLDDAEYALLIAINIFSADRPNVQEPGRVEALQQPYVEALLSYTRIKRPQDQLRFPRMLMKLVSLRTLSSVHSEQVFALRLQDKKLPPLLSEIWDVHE

[38] = cells; remark: listed apart in the source
[39] = cells; settings: HEK293

C#CCOc1ccc(C2C(C#N)=C(N)Oc3cc(O)ccc32)cc1 (centres undefined)
AC50 [1]: 3.61 µM (active)

O=C1C=C(NCc2ccc(Cl)cc2)C(=O)c2ccccc21
AC50 [2]: > 70 µM (inactive) | AC50 [3]: 53.3 µM (active) | AC50 [4]: > 70 µM (inactive)

COc1cc(C(=O)NC2CC3CCCC(C2)N3CC(=O)Nc2ccc(Cl)cc2)cc(OC)c1OC (centres undefined)
IC50 [5]: > 79 µM (inactive) | IC50 [6]: > 79 µM (inactive)

C[C@@H]1CN([C@H](C)CO)C(=O)CCCn2nncc2CO[C@H]1CN(C)Cc1ccc(Oc2ccccc2)cc1
AC50 [7]: 47.9 µM (active) | AC50 [8]: > 70 µM (inactive) | AC50 [9]: > 70 µM (inactive) | AC50 [10]: 22.1 µM (active) | AC50 [11]: 0.00024 µM (active)

CCOC(=O)C1=C[C@@H](c2ccccc2)N(S(=O)(=O)c2ccc(C)cc2)[C@H]1c1ccccc1Cl
AC50 [12]: > 30 µM (inactive)

CO[C@@H]1CN(C)C(=O)c2ccc(NC(=O)c3ccc(-c4ccccc4)cc3)cc2OC[C@@H](C)NC[C@H]1C
AC50 [13]: 12.1 µM (active) | AC50 [14]: 12.3 µM (active) | AC50 [15]: 10.3 µM (active) | AC50 [16]: 19.6 µM (active) | AC50 [17]: 8.67 µM (active) | AC50 [18]: 10.8 µM (active)

S=C(Nc1ccc(Cl)cc1Cl)NC1CCCCC1
AC50 [19]: 2.25 µM (active)

O=C(NNc1ccccc1Br)C(O)(c1cccc(C(F)(F)F)c1)c1cccc(C(F)(F)F)c1
AC50 [20]: 6.89 µM (active) | IC50 [21]: > 69.5 µM (inactive) | EC50 [22]: 2.13 µM (active) | EC50 [23]: 3.48 µM (active) | EC50 [24]: 9.39 µM (active)

O=C(NCc1nc2ccccc2[nH]1)C1=C[C@@H](c2csc3ccccc23)C[C@@H](OCCCCO)O1
IC50 [25]: 1.36 µM (active) | IC50 [26]: 1.91 µM (active) | IC50 [27]: 80.2 µM (inactive) | IC50 [28]: 64.4 µM (inactive)

CN(c1ccccc1)S(=O)(=O)c1cccc(NC(=O)CSc2nncs2)c1
AC50 [29]: 15.8 µM (active) | AC50 [30]: 2.6 µM (active) | AC50 [31]: 4.3 µM (active) | AC50 [32]: 1.44 µM (active)

Cc1cccc(C(=O)Nc2cccc(C(=O)Nc3ccccc3)c2)c1
IC50 [33]: 1.14 µM (active)

CCCCn1nnnc1C1(C)CCC(=O)N1CCCn1ccnc1 (centres undefined)
IC50 [34]: > 43.7 µM (inactive)

CCOC(=O)CNC(=O)CSc1ncnc2c1cnn2-c1ccc(OC)cc1
AC50 [35]: 34.4 µM (active) | AC50 [36]: 34.4 µM (active)

CSc1ccccc1-c1nnc(-c2ccccc2)o1
EC50 [37]: > 67.5 µM (inactive) | EC50 [38]: > 67.5 µM (inactive)

CC(=O)Oc1ccc(C(=O)Nc2cc(C)on2)cc1
AC50 [39]: > 52 µM (inactive)
